Measurements published in patent US10239844B2, “Disubstituted triazole analogs” (BioVentures, LLC, priority 2014, dated 2019).

Tests used:
K-562 = assay: NCI 60 panel five-dose growth inhibition, Leukemia; format: cell-based, human; settings: K-562, Leukemia; for GI50: Homo sapiens, K562
HOP-62 = assay: NCI 60 panel five-dose growth inhibition, Non-Small Cell Lung Cancer; format: cell-based, human; settings: HOP-62, Non-Small Cell Lung Cancer; for GI50: Homo sapiens
NCI-H460 = assay: as above; format: cell-based, human; settings: for GI50: Homo sapiens
HCT-116 = assay: NCI 60 panel five-dose growth inhibition, Colon Cancer; format: cell-based, human; settings: HCT-116, Colon Cancer; for GI50: Homo sapiens
1-ICT-15 = assay: as above; format: cell-based, human; settings: 1-ICT-15, Colon Cancer; for GI50: Homo sapiens
KM12 = assay: as above; format: cell-based, human; settings: for GI50: Homo sapiens
U251 = assay: NCI 60 panel five-dose growth inhibition, CNS Cancer; format: cell-based, human; settings: for GI50: Homo sapiens, U-251
OVCAR-4 = assay: NCI 60 panel five-dose growth inhibition, Ovarian Cancer; format: cell-based, human; settings: OVCAR-4, Ovarian Cancer; for GI50: Homo sapiens
A498 = assay: NCI 60 panel five-dose growth inhibition, Renal Cancer; format: cell-based, human; settings: for GI50: Homo sapiens, A498, A498, Renal Cancer
ACHN = assay: as above; format: cell-based, human; settings: for GI50: Homo sapiens
CAKI-1 = assay: as above; format: cell-based, human; settings: CAKI-1, Renal Cancer; for GI50: Homo sapiens
[1] = test system: panel of 60 different human cancer cell lines; assay: NCI panel of 60 human cancer cell lines, summary over the panel; format: cell-based; settings: against almost all the cell lines except UACC-62, COLO 205 and HCC-2998
Procedure: All synthesized compounds were submitted and evaluated for their anticancer activity at the National Cancer Institute (NCI). The submitted compounds were tested against a panel of 60 different human cancer cell lines, initially at a single concentration of 10 μM. Compounds showing the best growth inhibition activity were then selected for a complete five-dose response study. The anti-tumor effect of each compound was then determined by its GI50 and LC50 values.
The five compounds selected for the full dose response studies have very effective GI50 and TGI (Total Growth Inhibition) values against a variety of human tumor cell lines. All the compounds have LD50 values >100 μM against most of the human cancer cell lines implying the compounds are anti-proliferative. […] Example 4 and Example 6 have <10 nM GI50 values against Leukemia cancer cell lines K-562, SR, non-small lung cancer cell line HOP-92, colon cancer cell lines HCT-116, HCT-15, melanoma cancer lines M14, UACC-62, ovarian cancer cell line NCI/ADR-RES and renal cancer cell line A498.

SMILES	GI50 (K-562) [µM]	TGI (K-562) [µM]	TGI (HOP-62) [µM]	GI50 (HOP-62) [µM]	TGI (NCI-H460) [µM]	GI50 (NCI-H460) [µM]	GI50 (HCT-116) [µM]	TGI (1-ICT-15) [µM]	GI50 (1-ICT-15) [µM]	TGI (KM12) [µM]	GI50 (KM12) [µM]	TGI (U251) [µM]	GI50 (U251) [µM]	GI50 (OVCAR-4) [µM]	TGI (OVCAR-4) [µM]	GI50 (A498) [µM]	TGI (ACHN) [µM]	GI50 (ACHN) [µM]	TGI (CAKI-1) [µM]	GI50 (CAKI-1) [µM]	also measured
COc1cc(-c2n[nH]nc2-c2cc(OC)c(OC)c(OC)c2)cc(OC)c1OC [Example 3, 4,5-bis(3,4,5-trimethoxyphenyl)-2H-1,2,3-triazole]	0.0257	>100	>100	0.0467	>100	0.0381	0.0402	>100	0.0373	>100	0.0353	46.9	0.0371	0.0774	>100	0.0332	>100	0.0813	>100	0.0426	TGI (A498; A498, Renal Cancer): 6.69 µM
COc1cc(-c2n[nH]nc2-c2ccc3ccccc3n2)cc(OC)c1OC [Example 4, 2-(5-(3,4,5-trimethoxyphenyl)-2H-1,2,3-triazol-4-yl)quinoline]	< 0.01	>100	>100	0.025	>100	0.0342	< 0.01	5.13	< 0.01	23.8	0.0298	>100	0.0379	–	>100	< 0.01	>100	0.145	>100	0.0502	TGI (HCT-116): 1.47 µM
COc1ccc(-c2n[nH]nc2-c2cc(OC)cc(OC)c2)cc1 [Example 5, 4-(3,5-dimethoxyphenyl)-5-(4-methoxyphenyl)-2H-1,2,3-triazole]	< 0.01	>100	72.4	< 0.01	10.9	< 0.01	< 0.01	>100	< 0.01	0.05	< 0.01	16.5	< 0.01	< 0.01	>100	< 0.01	62.5	< 0.01	>100	< 0.01	TGI (HCT-116): >100 µM; TGI (A498; A498, Renal Cancer): <0.01 µM; TGI (A498; A498, as stated in text): less than 10 nM; GI50 [1]: < 0.01 µM
COc1ccc(-c2n[nH]nc2-c2cc(OC)c(OC)c(OC)c2)cc1 [Example 6, 4-(4-methoxyphenyl)-5-(3,4,5-trimethoxyphenyl)-2H-1,2,3-triazole]	< 0.01	>100	19.3	0.0182	20.0	0.0246	< 0.01	>100	< 0.01	11.2	< 0.01	22.7	0.0201	0.0336	57.2	< 0.01	>100	< 0.01	>100	< 0.01	TGI (HCT-116): 0.81 µM; TGI (A498; A498, Renal Cancer): 1.50 µM
COc1cc(-c2n[nH]nc2-c2ccc3c(c2)OCCO3)cc(OC)c1OC [Example 7, 4-(2,3-dihydrobenzo[b][1,4]dioxin-6-yl)-5-(3,4,5-trimethoxyphenyl)-2H-1,2,3-triazole]	0.0496	>100	>100	0.336	28.7	0.335	0.181	>100	0.125	11.9	0.07	11.2	0.302	0.0763	>100	0.343	>100	0.705	>100	0.316	TGI (HCT-116): 15.6 µM; TGI (A498; A498, Renal Cancer): 9.32 µM
